Measurements published in PubChem BioAssay AID1259407 (Chemical Carcinogenesis Research Information System (CCRIS), 2018).
Active and inactive are the calls of the source. No rule for the calls is given here.

Test system: CCRIS mutagenicity, Ames/micronucleus/aberration tests
Assay: CCRIS mutagenicity studies
[1] = Test System: AMES SALMONELLA TYPHIMURIUM, Strain/Indicator: TA98, Metabolic Activation: NONE, Method: STANDARD PLATE
[2] = Test System: AMES SALMONELLA TYPHIMURIUM, Strain/Indicator: TA100, Metabolic Activation: NONE, Method: STANDARD PLATE
[3] = Test System: AMES SALMONELLA TYPHIMURIUM, Strain/Indicator: TA1535, Metabolic Activation: NONE, Method: STANDARD PLATE
[4] = Test System: AMES SALMONELLA TYPHIMURIUM, Strain/Indicator: TA1537, Metabolic Activation: NONE, Method: STANDARD PLATE
[5] = Test System: AMES SALMONELLA TYPHIMURIUM, Strain/Indicator: TA1538, Metabolic Activation: NONE, Method: STANDARD PLATE

O=[N+]([O-])c1ccccc1SSC(Cl)=C(Cl)Cl
mutagenic call (Test System: AMES SALMONELLA TYPHIMURIUM, Strain/Indicator: TA100(DNP6), Metabolic Activation: NONE, Method: PREINCUBATION): active; positive | mutagenic call (Test System: AMES SALMONELLA TYPHIMURIUM, Strain/Indicator: TA100(NR), Metabolic Activation: NONE, Method: PREINCUBATION): active; positive

CC1(C)CC(C(=O)NC(CO)C(O)CO)C(C)(C)N1O (stereo unspecified)
mutagenic call (Test System: CHO, Strain/Indicator: CHO/6-THIOGUANINE, Metabolic Activation: NONE, Method: STANDARD PLATE): inactive; negative | mutagenic call (Test System: CHO, Strain/Indicator: CHO/6-THIOGUANINE, Metabolic Activation: RAT, LIVER, S-9, AROCLOR 1254, Method: STANDARD PLATE): inactive; negative | mutagenic call (Test System: CHO, Strain/Indicator: CHO/OUABAIN, Metabolic Activation: NONE, Method: STANDARD PLATE): inactive; negative | mutagenic call (Test System: CHO, Strain/Indicator: CHO/OUABAIN, Metabolic Activation: RAT, LIVER, S-9, AROCLOR 1254, Method: STANDARD PLATE): inactive; negative

CC(F)F
mutagenic call (Test System: AMES SALMONELLA TYPHIMURIUM, Strain/Indicator: TA98, Metabolic Activation: NONE, Method: GAS EXPOSURE): inactive; negative | mutagenic call (Test System: AMES SALMONELLA TYPHIMURIUM, Strain/Indicator: TA98, Metabolic Activation: RAT LIVER S-9, PHENOBARBITAL AND BETA-NAPHTHOFLAVONE, Method: GAS EXPOSURE): inactive; negative | mutagenic call (Test System: AMES SALMONELLA TYPHIMURIUM, Strain/Indicator: TA100, Metabolic Activation: NONE, Method: GAS EXPOSURE): inactive; negative | mutagenic call (Test System: AMES SALMONELLA TYPHIMURIUM, Strain/Indicator: TA100, Metabolic Activation: RAT LIVER S-9, PHENOBARBITAL AND BETA-NAPHTHOFLAVONE, Method: GAS EXPOSURE): inactive; negative | mutagenic call (Test System: AMES SALMONELLA TYPHIMURIUM, Strain/Indicator: TA1535, Metabolic Activation: NONE, Method: GAS EXPOSURE): inactive; negative | mutagenic call (Test System: AMES SALMONELLA TYPHIMURIUM, Strain/Indicator: TA1535, Metabolic Activation: RAT LIVER S-9, PHENOBARBITAL AND BETA-NAPHTHOFLAVONE, Method: GAS EXPOSURE): inactive; negative | mutagenic call (Test System: AMES SALMONELLA TYPHIMURIUM, Strain/Indicator: TA1537, Metabolic Activation: NONE, Method: GAS EXPOSURE): inactive; negative | mutagenic call (Test System: AMES SALMONELLA TYPHIMURIUM, Strain/Indicator: TA1537, Metabolic Activation: RAT LIVER S-9, PHENOBARBITAL AND BETA-NAPHTHOFLAVONE, Method: GAS EXPOSURE): inactive; negative | mutagenic call (Test System: E.COLI, Strain/Indicator: WP2UVRA, Metabolic Activation: NONE, Method: GAS EXPOSURE): inactive; negative | mutagenic call (Test System: E.COLI, Strain/Indicator: WP2UVRA, Metabolic Activation: RAT LIVER S-9, PHENOBARBITAL AND BETA-NAPHTHOFLAVONE, Method: GAS EXPOSURE): inactive; negative

CCc1cccc(CC)c1N(COC)C(=O)CCl
mutagenic call (End Point: IN VITRO CHROMOSOMAL ABERRATIONS, Test System: PERIPHERAL BLOOD HUMAN LYMPHOCYTES, Metabolic Activation: NONE): inactive; negative; chromosomal aberrations not increased but chromatid-type aberrations i | mutagenic call (End Point: IN VITRO MICRONUCLEUS, Test System: HUMAN PERIPHERAL BLOOD LYMPHOCYTES, Metabolic Activation: NONE): active; positive; result at highest dose; variation among donors | mutagenic call (End Point: IN VITRO MICRONUCLEUS, Test System: HUMAN PERIPHERAL BLOOD LYMPHOCYTES, Metabolic Activation: S-9): active; positive; result at highest dose; variation among donors | mutagenic call (End Point: IN VITRO MICRONUCLEUS, Test System: PERIPHERAL BLOOD HUMAN LYMPHOCYTES, Metabolic Activation: NONE): active; positive; variation among donors | mutagenic call (Test System: AMES SALMONELLA TYPHIMURIUM, Strain/Indicator: TA98, Metabolic Activation: NONE, Method: PREINCUBATION): inactive; negative | mutagenic call [1]: inactive; negative | mutagenic call (Test System: AMES SALMONELLA TYPHIMURIUM, Strain/Indicator: TA98, Metabolic Activation: RAT, LIVER, MICROSOMES, PHENOBARBITAL, Method: PREINCUBATION): inactive; negative | mutagenic call (Test System: AMES SALMONELLA TYPHIMURIUM, Strain/Indicator: TA98, Metabolic Activation: S-9, Method: STANDARD PLATE): inactive; negative | mutagenic call (Test System: AMES SALMONELLA TYPHIMURIUM, Strain/Indicator: TA100, Metabolic Activation: NONE, Method: PREINCUBATION): inactive; negative | mutagenic call [2]: inactive; negative | mutagenic call (Test System: AMES SALMONELLA TYPHIMURIUM, Strain/Indicator: TA100, Metabolic Activation: RAT OLFACTORY S-9, Method: PREINCUBATION): active; positive | mutagenic call (Test System: AMES SALMONELLA TYPHIMURIUM, Strain/Indicator: TA100, Metabolic Activation: RAT RESPIRATORY S-9, Method: PREINCUBATION): inactive; negative | mutagenic call (Test System: AMES SALMONELLA TYPHIMURIUM, Strain/Indicator: TA100, Metabolic Activation: RAT, LIVER, MICROSOMES, PHENOBARBITAL, Method: PREINCUBATION): inactive; negative | mutagenic call (Test System: AMES SALMONELLA TYPHIMURIUM, Strain/Indicator: TA100, Metabolic Activation: RAT, LIVER, S-9, Method: PREINCUBATION): active; positive | mutagenic call (Test System: AMES SALMONELLA TYPHIMURIUM, Strain/Indicator: TA100, Metabolic Activation: S-9, Method: STANDARD PLATE): inactive; negative | mutagenic call [3]: inactive; negative | mutagenic call (Test System: AMES SALMONELLA TYPHIMURIUM, Strain/Indicator: TA1535, Metabolic Activation: S-9, Method: STANDARD PLATE): inactive; negative | mutagenic call [4]: inactive; negative | mutagenic call (Test System: AMES SALMONELLA TYPHIMURIUM, Strain/Indicator: TA1537, Metabolic Activation: S-9, Method: STANDARD PLATE): inactive; negative | mutagenic call [5]: active; positive | mutagenic call (Test System: AMES SALMONELLA TYPHIMURIUM, Strain/Indicator: TA1538, Metabolic Activation: S-9, Method: STANDARD PLATE): inactive; negative | mutagenic call (Test System: MOUSE LYMPHOMA, Strain/Indicator: 3.7.2C (TK+/TK-), Metabolic Activation: RAT OLFACTORY S-9, Method: SUSPENSION/PLATE): active; positive

O=Nc1c(-c2ccc(Cl)cc2)nc2sccn12
mutagenic call [1]: inactive; negative | mutagenic call [2]: inactive; negative | mutagenic call [3]: inactive; negative | mutagenic call [4]: active; positive | mutagenic call [5]: active; positive

Cc1ccc2c3c(cc4ccccc4c13)-c1ccccc1-2
mutagenic call (Test System: AMES SALMONELLA TYPHIMURIUM, Strain/Indicator: TA100, Metabolic Activation: RAT, LIVER, S-9, AROCLOR 1254): active; positive

CCCC(=O)C1c2cccc(O)c2C(=O)c2c(O)cccc21
mutagenic call [4]: active; positive | mutagenic call (Test System: AMES SALMONELLA TYPHIMURIUM, Strain/Indicator: TA1537, Metabolic Activation: RAT, LIVER, S-9, PHENOBARBITAL AND BETA-NAPHTHOFLAVONE, Method: STANDARD PLATE): active; positive | mutagenic call (Test System: E. COLI, Strain/Indicator: WP2, Metabolic Activation: NONE, Method: STANDARD PLATE): inactive; negative | mutagenic call (Test System: E. COLI, Strain/Indicator: WP2, Metabolic Activation: RAT, LIVER, S-9, AROCLOR 1254, Method: STANDARD PLATE): inactive; negative | mutagenic call (Test System: E. COLI, Strain/Indicator: WP2 UVRA, Metabolic Activation: NONE, Method: STANDARD PLATE): inactive; negative | mutagenic call (Test System: E. COLI, Strain/Indicator: WP2 UVRA, Metabolic Activation: RAT, LIVER, S-9, AROCLOR 1254, Method: STANDARD PLATE): inactive; negative

Nc1ncnc2c1ncn2C(c1ccccc1)c1ccccc1
mutagenic call (Test System: AMES SALMONELLA TYPHIMURIUM, Strain/Indicator: TA97, Metabolic Activation: NONE, Method: STANDARD PLATE): inactive; negative | mutagenic call (Test System: AMES SALMONELLA TYPHIMURIUM, Strain/Indicator: TA97, Metabolic Activation: RAT, LIVER, S-9, AROCLOR 1254, Method: STANDARD PLATE): inactive; negative | mutagenic call [1]: inactive; negative | mutagenic call (Test System: AMES SALMONELLA TYPHIMURIUM, Strain/Indicator: TA98, Metabolic Activation: RAT, LIVER, S-9, AROCLOR 1254, Method: STANDARD PLATE): active; positive | mutagenic call [2]: inactive; negative | mutagenic call (Test System: AMES SALMONELLA TYPHIMURIUM, Strain/Indicator: TA100, Metabolic Activation: RAT, LIVER, S-9, AROCLOR 1254, Method: STANDARD PLATE): inactive; negative
